Assay results: patent publication US7416741B2, “Copper lowering treatment of inflammatory and fibrotic diseases” (The Regents of the University of Michigan, priority 2002, dated 2008)

Legend:
[1] = In vitro copper complexing studies; conditions: compared with ammonium salt of TM
[2] = Solubility and stability of TM salts; conditions: other salts of TM
From the text: Thus, other salts have been prepared and evaluated for solubility, stability and anticopper activity.

hAPP tg mice = conditions: pharmacologic treatment of hAPP tg mice; cited from earlier work
[3] = tested on: Wilson's disease patients; conditions: cited from earlier work
bleomycin mouse model = conditions: in vivo; cited from earlier work
[4] = tested on: Wilson's disease patients; conditions: at cupruresis of 2-3 mg
Method: Ingestion of copper is about 1 mg/day, with obligatory, non-urine losses of about 0.5 mg.

cancer patients = conditions: cited from earlier work
[5] = therapeutic dose 1,000-2,000 mg/day

CCC[N+](CCC)(CCC)CCC.CCC[N+](CCC)(CCC)CCC.[S]=[Mo](=[S])([S-])[S-] [TPTM, tetrapropyl tetrathiomolybdate]
in vitro copper complexing [1]: behave similarly to ammonium salt of TM | solubility in water [2]: suitable solubility in water

C[N+](C)(C)CCO.C[N+](C)(C)CCO.[SH-].[SH-].[S]=[Mo]=[S] [choline TM]
in vitro copper complexing [1]: behave similarly to ammonium salt of TM

Oc1c(I)cc(Cl)c2cccnc12 [clioquinol]
amyloid pathology (hAPP tg mice): prevented

CC(C)Cc1ccc(C(C)C(=O)O)cc1 (centres unmarked) [ibuprofen]
amyloid pathology (hAPP tg mice): prevented

CC(C)(S)[C@@H](N)C(=O)O [penicillamine]
patients developing initial hypersensitivity syndrome ([3]; human, in vivo): about a quarter to a third of patients

Cc1ccc(=O)n(-c2ccccc2)c1 [perfenidone]
efficacy in the bleomycin mouse model (bleomycin mouse model): effective in the bleomycin mouse model

CC[N+](CC)(CC)CC.CC[N+](CC)(CC)CC.[S]=[Mo](=[S])([S-])[S-] [tetraethyl TM]
in vitro copper complexing [1]: behave similarly to ammonium salt of TM | solubility in water [2]: suitable solubility in water

NCCNCCNCCN [trientine]
patients with proteinuria ([3]; after several weeks of use): about 20% | cupruresis after the first few weeks of therapy [3, 5]: 2 to 3 mg | cupruresis, initial [3, 5]: 4 to 5 mg | negative copper balance [4]: 1.5 to 2.5 mg/day

CC(=O)[O-].CC(=O)[O-].[Zn+2] [zinc, zinc acetate]
copper balance induced ([3]; Wilson's patients, average): −0.35 mg daily | time to achieve intestinal metallothionein induction and a negative copper balance ([3]; Wilson's patients): approximately two | time to bring urine copper and nonceruloplasmin plasma copper down to subtoxic levels ([3]; zinc therapy): six

bleomycin
patients developing pulmonary fibrosis (cancer patients): about 3%
